# Reference: patent US20240415819A1, “MACROCYCLIC COMPOUNDS AS PROTEASOME SUBUNIT BETA TYPE-5 INHIBITORS” (Lead Discovery Center GmbH, priority 2021, published 2024)
# Columns and labels:
# [1] = target: T1, β5 subunit of the human immunoproteasome (IPS) (Homo sapiens, UniProt P28062); assay: β5 inhibition assay, human immunoproteasome (Suc-LLVY-AMC); format: biochemical; settings: IC50 class, Suc-LLVY-AMC substrate
# T1 construct: purchased Boston Biochem E-370
# Outline: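 β5 activity is read as liberated AMC fluorescence (355/460 nm) after 4 h dark reaction at RT with 22.6 μM Suc-LLVY-AMC, stopped by 1 μM bortezomib. Beforehand, 1 nM human IPS and compound sat 10 min at RT in HEPES pH 7.5 buffer containing NaCl, 0.02% SDS and DTT.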
# [2] = tested on: MM1 S (B lymphoblast cell line); assay: 48 hr CTG viability assay, MM1S; format: cell-based; settings: Homo sapiens, 48 hr CTG, read-out: MM1S IC50
# Outline: (§1)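 Growth inhibition by compound over 48 h; IC50 (nM) derived from duplicate CellTiter-Glo luminescence readings across 0.0015–10 uM.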
# [3] = tested on: A2780 (human ovarian cancer cell line); assay: 48 hr CTG viability assay, A2780; format: cell-based
# Experimental: (§2) A viability assay was conducted for 48 hours to evaluate the inhibition of cancer cell growth by proteasome inhibitors. Briefly, the candidate cell line was plated with a 96-well plate following density of cells, respectively. 6×10^3 Cells/well for A2780 (human ovarian cancer cell line) and MDA-MB-468 (breast carcinoma), 8×10^3 Cells/well for Hs746T (human gastric carcinoma cell line), 1.1×10^4 Cells/well for MM1 S and RPMI 8226 (multiple myeloma). After 24 hours, the cells were treated with various concentrations of the compound (ranging from 0.0015 uM to 10 uM). […] After 48 hours of incubation at 37° C., 5% CO2 incubator, cells were analyzed for viability using the CellTiter-Glo Luminescent Cell Viability assay (Promega, Cat #G7570). All viability assays were performed in duplicate and Luminescence was read using an Envision (Perkin Elmer, USA). Data were analyzed using XLfit software. […] (human gastric carcinoma cell line), MM1 S (B lymphoblast cell line), and RPMI 8226 (B lymphocyte cell line, multiple myeloma). Inhibition is indicated as IC50 [nM] (“-”=not measured).
# [4] = tested on: A549 (human lung carcinoma cell line); assay: Glo assay of A549 cells (Table 3; ProteasomeGlo plating scheme); format: cell-based; settings: Homo sapiens; A549 cells; read-out: PGLo A549
# Outline: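 IC50 values (nM) come from a cell-based chymotrypsin-like Proteasome-Glo luminescence assay. Compound exposure ran 105 min at 37° C.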
# [5] = tested on: Hs 746T (human gastric carcinoma cell line); assay: 48 hr CTG viability assay, Hs 746T; format: cell-based; settings: Hs746T, 48 hr CTG, read-out: Hs 746T IC50
# Outline: as §1
# [6] = tested on: MDA-MB-468 (breast carcinoma); assay: 48 hr CTG viability assay, MDA-MB-468; format: cell-based; settings: Homo sapiens
# Experimental: as §2
# [7] = tested on: RPMI 8226 (B lymphocyte cell line, multiple myeloma); assay: 48 hr CTG viability assay, RPMI 8226; format: cell-based; settings: Homo sapiens, RPMI-8226; 48 hr CTG; read-out: RPMI-8226 IC50
# Outline: as §1
# [8] = target: T2, β5 subunit of the human constitutive proteasome (CPS) (Homo sapiens, UniProt P28074); assay: β5 inhibition assay, human constitutive proteasome (Suc-LLVY-AMC); format: biochemical; settings: IC50 class, Suc-LLVY-AMC substrate
# T2 construct: purchased Boston Biochem E-360
# Experimental: The enzymatic activity of the β5 subunit of the human constitutive proteasome (CPS) is analyzed. In another assay, which differs from the assay of the human constitutive proteasome only in using the human immunoproteasome (IPS) the enzymatic activity of the β5 subunit of the human immunoproteasome (IPS) is analyzed. […] Inhibition is indicated as IC50 [nM] (“-”=not measured).
IC50 [1] [nM],IC50 [2] [nM],IC50 [3] [nM],IC50 [4] [nM],IC50 [5] [nM],IC50 [6] [nM],IC50 [7] [nM],IC50 [8] [nM],SMILES
< 100,< 100,< 100,< 100,< 100,< 100,< 100,< 100,"Cc1ccc2cc1CNC(=O)[C@H](CCc1ccccc1)NC(=O)[C@@H](NC(=O)[C@@H](C)c1ccc(N)cc1)CC(=O)N1CCCC(CCO2)C1 (stereo partly drawn) [Compound 634, (2S)-2-(4-aminophenyl)-N-((9S,12S)-5^4-methyl-8,11,14-trioxo-9-phenethyl-4-oxa-7,10-diaza-1(3,1)-piperidina-5(1,3)-benzenacyclotetradecaphane-12-yl)propanamide]"
< 100,1000 to 5000,,1000 to 5000,> 5000,1000 to 5000,500 to 1000,< 100,"Cc1ccc2cc1CNC(=O)[C@H](CCc1ccccc1)NC(=O)[C@@H](NC(=O)C(C)(C)CO)CCC(=O)NCCCO2 [Compound 732, 3-hydroxy-2,2-dimethyl-N-((10S,13S)-1^4-methyl-7,11,14-trioxo-13-phenethyl-2-oxa-6,12,15-triaza-1(1,3)-benzenacyclohexadecaphane-10-yl)propanamide]"
< 100,< 100,< 100,< 100,< 100,< 100,< 100,< 100,"Cc1ccc2cc1CNC(=O)[C@H](CCc1ccccc1)NC(=O)[C@@H](NC(=O)[C@H](C)c1ccc(N)cc1)CC(=O)N1CCCC(CCO2)C1 (stereo partly drawn) [Compound 738, (2R)-2-(4-aminophenyl)-N-((9S,12S)-5^4-methyl-8,11,14-trioxo-9-phenethyl-4-oxa-7,10-diaza-1(3,1)-piperidina-5(1,3)-benzenacyclotetradecaphane-12-yl)propanamide]"
< 100,< 100,,< 100,< 100,< 100,< 100,< 100,"Cc1ccc2cc1CNC(=O)[C@H](CCc1ccccc1)NC(=O)[C@@H](NC(=O)C1(CO)CCOCC1)CC(=O)N1CCCC(CCO2)C1 (stereo partly drawn) [Compound 671, 4-(hydroxymethyl)-N-((9S,12S)-5^4-methyl-8,11,14-trioxo-9-phenethyl-4-oxa-7,10-diaza-1(3,1)-piperidina-5(1,3)-benzenacyclotetradecaphane-12-yl)tetrahydro-2H-pyran-4-carboxamide]"
< 100,1000 to 5000,,> 5000,> 5000,> 5000,1000 to 5000,100 to 500,"Cc1ccc2cc1CNC(=O)[C@H](CCc1ccccc1)NC(=O)[C@@H](NC(=O)C(C)(C)CO)CC(=O)NCCCCO2 [Compound 735, 3-hydroxy-2,2-dimethyl-N-((10S,13S)-1^4-methyl-8,11,14-trioxo-13-phenethyl-2-oxa-7,12,15-triaza-1(1,3)-benzenacyclohexadecaphane-10-yl)propanamide]"
< 100,< 100,,< 100,< 100,< 100,< 100,< 100,"Cc1ccc2cc1CNC(=O)[C@H](CCc1ccccc1)NC(=O)[C@@H](NC(=O)C1(CO)CC1)CC(=O)N1CCCC(CCO2)C1 (stereo partly drawn) [Compound 664, 1-(hydroxymethyl)-N-((9S,12S)-5^4-methyl-8,11,14-trioxo-9-phenethyl-4-oxa-7,10-diaza-1(3,1)-piperidina-5(1,3)-benzenacyclotetradecaphane-12-yl)cyclopropane-1-carboxamide]"
< 100,< 100,,< 100,< 100,< 100,< 100,< 100,"Cc1ccc2cc1CNC(=O)[C@H](CCc1ccccc1)NC(=O)[C@@H](NC(=O)C(F)(F)CO)CC(=O)N1CCCC(CCO2)C1 (stereo partly drawn) [Compound 599, 2,2-difluoro-3-hydroxy-N-((9S,12S)-5^4-methyl-8,11,14-trioxo-9-phenethyl-4-oxa-7,10-diaza-1(3,1)-piperidina-5(1,3)-benzenacyclotetradecaphane-12-yl)propanamide]"
